Earlier results, collected in US8198478B2 (Ajinomoto Co., Inc., priority 2007, dated 2012).

Conditions: literature value (Kagaku Binran, 1993)

hydrogen ion dissociation constant pk1: 2.19
hydrogen ion dissociation constant pk2: 4.25
hydrogen ion dissociation constant pk3: 9.67
Compound: N[C@@H](CCC(=O)O)C(=O)O [glutamic acid]
